From PubChem BioAssay (NCI)
Several values for one entry are separate records, joined by “and”; a condition that tells them apart may be missing. Equal values may be shown once.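 Protocol summary: plate cells (96-well), add compound at 5 concentrations, incubate 48 h, interpolate endpoints linearly. GI50 = concentration required for 50% inhibition of growth. The concentration for full growth arrest is given as TGI.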

Tests used:
Test in all cases: DTP human tumour cell line panel, 48 h
COLO 205 colon = test system: COLO 205 colon
EKVX NSCLC = test system: EKVX NSCLC
MALME-3M melanoma = test system: MALME-3M melanoma
OVCAR-8 ovarian = test system: OVCAR-8 ovarian
SF-295 CNS = test system: SF-295 CNS
SK-MEL-28 melanoma = test system: SK-MEL-28 melanoma
T-47D breast = test system: T-47D breast
U251 CNS = test system: U251 CNS
HL-60(TB) leukemia = test system: HL-60(TB) leukemia
SNB-75 CNS = test system: SNB-75 CNS

Structure (SMILES)	TGI (COLO 205 colon) [µM]	TGI (EKVX NSCLC) [µM]	TGI (MALME-3M melanoma) [µM]	TGI (OVCAR-8 ovarian)	TGI (SF-295 CNS) [µM]	TGI (SK-MEL-28 melanoma) [µM]	TGI (T-47D breast) [µM]	TGI (U251 CNS)	GI50 (COLO 205 colon) [µM]	GI50 (EKVX NSCLC) [nM]	GI50 (HL-60(TB) leukemia) [nM]	TGI (HL-60(TB) leukemia) [µM]	GI50 (SF-295 CNS) [µM]	GI50 (SK-MEL-28 melanoma) [µM]	GI50 (SNB-75 CNS) [nM]	TGI (SNB-75 CNS)	GI50 (U251 CNS) [nM]	GI50 (MALME-3M melanoma) [µM]	GI50 (OVCAR-8 ovarian) [µM]	GI50 (T-47D breast) [µM]
CCNc1ccc2c(c1)C(=O)N(OS(C)(=O)=O)C2=O	> 100	> 100	> 100	> 100 µM	> 100	> 100	> 100	> 100 µM	–	–	–	–	–	–	–	–	–	–	–	–
CCOc1ccc2cc(-c3nn(CC4CCN(C)CC4)c4ncnc(N)c34)ccc2c1	26.7	> 100	–	–	29.2	10.1	–	27.5 µM	11.9	26400	15700	34.6	14.5	3.12	1560	15.9 µM	12900	–	–	–
C[C@@H]1CC2(C[C@@H](C)C3[C@@H](CC4(C)CCCC5C6=CC(O)(CC[C@]34C)OC6=CC(=O)OC5(C)C)O2)OC1=O (stereo partly specified)	> 100	–	> 100	–	–	> 100	–	> 100 µM	–	–	–	> 100	–	–	–	> 100 µM	–	–	–	–
Cc1cc(C)nc(NC(=O)COc2ccc(Cl)cc2)c1	> 100	> 100	> 100	> 100 µM	> 100	> 100	> 100	> 100 µM	–	–	–	–	–	–	–	> 100 µM	–	–	–	–
COc1cccc(C=NC23CC4CC(CC(C4)C2)C3)c1	> 100	> 100	> 100	> 100 µM	> 100	> 100	–	> 100 µM	–	–	–	> 100	–	–	–	> 100 µM	–	–	–	–
Cc1cc(O)c2c(c1)OC1(C)CCC3C(C)(C)CCCC34COC2C14 (stereo unspecified)	29.9	24.8	26.3	30.9 µM	28.3	–	–	–	–	–	–	63.7	–	–	–	–	–	–	–	–
CNC(=O)NCCCCC(NC(C)=O)C(=O)NCc1ccccc1 (stereo unspecified)	> 100	> 100	> 100	> 100 µM	> 100	> 100	–	> 100 µM	–	–	–	–	–	–	–	> 100 µM	–	–	–	–
C=C(c1ccccc1)c1cc2c(=O)[nH]ccc2n1C	35.6	> 100	> 100	> 100 µM	82.9	> 100	–	–	–	–	–	38.1	–	–	–	45.6 µM	–	–	–	–
O=C(C#Cc1ccccc1)NC/C=C/c1ccccc1	> 100	> 100	> 100	> 100 µM	> 100	> 100	–	> 100 µM	–	–	–	58.1	–	–	–	45.8 µM	–	–	–	–
O=C(O)C1CC2C=CCC(C2)C1 (stereo unspecified)	> 100	> 100	> 100	> 100 µM	> 100	> 100	–	> 100 µM	–	–	–	> 100	–	–	–	> 100 µM	–	–	–	–
CC(NC1CCCC[C@@H]1O)c1ccccc1 (stereo partly specified)	> 100	> 100	> 100	> 100 µM	> 100	> 100	–	> 100 µM	–	–	–	> 100	–	–	–	> 100 µM	–	–	–	–
O=C1N=C2N=C(c3ccc(Cl)cc3)N(c3ccc(Cl)cc3)N2Sc2ccccc21	> 100	> 100	> 100	> 100 µM	> 100	> 100	–	87.2 µM	–	–	–	> 100	–	–	–	> 100 µM	–	–	–	–
COc1c2c(c(O)c3c4c(c(C)cc13)C1OC3(C(OC)OC5CC(C)(O)C(OC6CC(C)(O)C(O)C(C)O6)C(C)O5)OC1C(OC)(O4)C31CO1)C(=O)C(O)CC2OC1CC(C)(O)C(OC(C)=O)C(C)O1 (stereo unspecified)	–	0.0336	< 0.01	–	< 0.023	–	–	< 0.0108 µM	–	–	–	< 0.01	–	–	–	< 0.01 µM	–	–	–	–
C/C(=C\c1ccccc1)C(=O)c1c(C)cc(C)cc1C	> 100	> 100	> 100	> 100 µM	> 100	> 100	–	> 100 µM	–	–	–	> 100	–	–	–	> 100 µM	–	–	–	–
c1ccc(N2CCN(CCN3CCc4c([nH]c5ccccc45)C3c3cccnc3)CC2)cc1 (stereo unspecified)	–	> 100	–	> 100 µM	> 100	> 100	–	> 100 µM	–	–	–	> 100	–	–	–	9.7 µM	–	–	–	–
O=C(NCCCN1CCN(CCCNC(=O)Nc2cc(Cl)ccc2Cl)CC1)Nc1cc(Cl)ccc1Cl	> 100	–	54.1	> 100 µM	> 100	> 100	–	> 100 µM	–	–	–	> 100	–	–	–	82 µM	–	–	–	–
CC(=O)/C(=N\N=C(N)N)c1ccccc1	> 100	> 100	> 100	> 100 µM	> 100	> 100	> 100	> 100 µM	–	–	–	–	–	–	–	> 100 µM	–	–	–	–
O=C(O)CCN1C(=S)CSC1=S	> 100	> 100	> 100	> 100 µM	> 100	> 100	> 100	> 100 µM	–	–	–	–	–	–	–	> 100 µM	–	–	–	–
COC(=O)C1=C(O)c2cc(OC)c(OC)c(OC)c2C(c2ccc3c(c2)OCO3)[C@@H]1C(=O)OC (stereo partly specified)	6.37	> 100	> 100	> 100 µM	13.4	> 100	–	> 100 µM	–	–	–	5.49	–	–	–	> 100 µM	–	–	–	–
COc1ccc(OCC(=O)O)c2c1CCC(C)C2=O (stereo unspecified)	> 100	> 100	> 100	> 100 µM	> 100	> 100	–	> 100 µM	–	–	–	> 100	–	–	–	–	–	–	–	–
COc1ccc(CN2c3ccccc3Sc3ccccc32)cc1O	4.6	15.9	28.1	20.3 µM	0.646	32.2	–	14.5 µM	0.789	378	257	0.661	0.225	14.4	180	13.3 µM	427	12.1	0.508	–

Structure (SMILES)	TGI (COLO 205 colon) [µM]	TGI (EKVX NSCLC) [µM]	TGI (MALME-3M melanoma) [µM]	TGI (OVCAR-8 ovarian)	TGI (SF-295 CNS) [µM]	TGI (SK-MEL-28 melanoma) [µM]	TGI (T-47D breast) [µM]	TGI (U251 CNS)	GI50 (COLO 205 colon) [µM]	GI50 (EKVX NSCLC) [nM]	GI50 (HL-60(TB) leukemia) [nM]	TGI (HL-60(TB) leukemia) [µM]	GI50 (SF-295 CNS) [µM]	GI50 (SK-MEL-28 melanoma) [µM]	GI50 (SNB-75 CNS) [nM]	TGI (SNB-75 CNS)	GI50 (U251 CNS) [nM]	GI50 (MALME-3M melanoma) [µM]	GI50 (OVCAR-8 ovarian) [µM]	GI50 (T-47D breast) [µM]
CCOC1=C/C(=N\Nc2ccc([N+](=O)[O-])cc2)CCC1	51.3	> 100	> 100	> 100 µM	> 100	72.6	–	54.1 µM	–	–	–	> 100	–	–	–	73.1 µM	–	–	–	–
O=C(CC1(O)CCCCC1)OC1CCCC1	> 100	> 100	> 100	> 100 µM	> 100	–	> 100	> 100 µM	–	–	–	–	–	–	–	> 100 µM	–	–	–	–
Cc1nc(Nc2ccc(Cl)cc2)sc1C(=O)Nc1cccc2c(=O)[nH][nH]c(=O)c12	34	44.2	80.3	> 100 µM	74.3	> 100	–	> 100 µM	–	–	–	45.2	–	–	–	83.4 µM	–	–	–	–
Nc1ccc(C(=O)N/C(=C\c2ccc3c(c2)OCO3)c2nc3ccccc3s2)cc1	34.9	25.9	–	28.9 µM	30.3	25.9	–	26.4 µM	–	–	–	–	–	–	–	–	–	–	–	–
COC(OC)c1cccnc1C	> 100	> 100	> 100	> 100 µM	> 100	> 100	–	> 100 µM	–	–	–	> 100	–	–	–	> 100 µM	–	–	–	–
Nc1ccccc1SC(/C=C/NNC1=NC(c2ccccc2)C(c2ccccc2)=NN1)c1ccccc1 (stereo unspecified)	29	29	30.1	49 µM	24.5	27	–	28.9 µM	–	–	–	13.1	–	–	–	17.8 µM	–	–	–	–
BrCc1ccc2ccc3ccc(CBr)nc3c2n1	4.3	22.6	–	15.7 µM	28.6	6.02	–	19 µM	–	–	–	5.28	–	–	–	6.69 µM	–	–	–	–
COC(=O)CCC(NC(=S)N/N=C(\C)c1cccs1)C(=O)OC (stereo unspecified)	> 100	> 100	> 100	> 100 µM	> 100	> 100	–	> 100 µM	–	–	–	–	–	–	–	> 100 µM	–	–	–	–
C[C@]12CCC3c4ccc(O)cc4CCC3C1CC[C@@H]2NC(=O)/C=C/c1ccc(O)c(O)c1 (stereo partly specified)	32.9	31.2	70.9	29.1 µM	44.8	24.5	> 100	21.1 µM	13.1	10200	–	–	18.5	9.59	2660	9.36 µM	6630	25.1	10.4	9.57
C=C1C(=O)O[C@@H]2C[C@@H](C)[C@@H]3C=CC(=O)[C@@]3(C)[C@@H](OC(=O)CCCC(=O)O[C@H]3[C@@H]4C(=C)C(=O)O[C@@H]4C[C@@H](C)[C@@H]4C=CC(=O)[C@]43C)[C@H]12	0.111	0.264	0.0373	0.0295 µM	3.13	0.136	0.0666	0.377 µM	–	–	–	–	–	–	–	0.482 µM	–	–	–	–
COc1ccc(-c2cn3ccnc3c(-c3ccc(Cl)cc3)n2)cc1	> 100	> 100	–	> 100 µM	85.3	> 100	–	–	5.49	2390	5140	> 100	23.1	5.37	6850	> 100 µM	–	–	15	–
CCOC(=O)NN1C(=O)C(=P(c2ccccc2)(c2ccccc2)c2ccccc2)C(C(=O)OC)=C1C	> 100	> 100	> 100	> 100 µM	> 100	–	–	> 100 µM	–	–	–	> 100	–	–	–	> 100 µM	–	–	–	–
Cc1cccc(C=NC23CC4CC(CC(C4)C2)C3)c1	> 100	> 100	> 100	> 100 µM	> 100	> 100	–	> 100 µM	–	–	–	> 100	–	–	–	> 100 µM	–	–	–	–
C/C(=N/NC(N)=S)C(CN1CCOCC1)C(C1=C(O)c2ccccc2OC1)c1ccccc1 (stereo unspecified)	> 100	> 100	> 100	> 100 µM	> 100	–	–	> 100 µM	–	–	–	50	–	–	–	> 100 µM	–	–	–	–
CCCC(=O)Nc1cc(/C=C/C(=O)N2C[C@@H]3C[C@]34C2=CC(=O)c2[nH]cc(C)c24)n(C)c1	–	–	0.337	0.406 µM and 0.285 µM	25	1.6	1.08	3.72 µM and 13.8 µM	–	172	–	–	–	–	61	1.21 µM and 0.248 µM	35.9	–	0.0447	–
CSC(=S)NCc1cn(C)c2ccccc12	65.9	> 100	92.4	90.6 µM	> 100	> 100	> 100	> 100 µM	17.5	32000	–	–	33.5	> 100	51400	> 100 µM	28600	24.6	24.2	29.5
CCNC(=O)COc1ccc(Cl)c(C)c1	> 100	–	> 100	–	> 100	> 100	–	> 100 µM	–	–	–	> 100	–	–	–	> 100 µM	–	–	–	–
O=C(O)C(Cc1ccccc1)N1C(=O)/C(=C/C(Cl)=C/c2ccc([N+](=O)[O-])cc2)SC1=S (stereo unspecified)	6.21	7.29	4.82	> 100 µM	7.85	4.68	–	3.52 µM	2.45	2590	–	–	2.59	2.16	1960	5.37 µM	1720	2.13	3.13	–
O=C1C(=O)N(c2cc(Cl)ccc2Cl)C(=O)C(=O)C1c1nc2ccccc2s1	> 100	> 100	> 100	> 100 µM	> 100	> 100	–	> 100 µM	–	–	–	> 100	–	–	–	> 100 µM	–	–	–	–
CN(C)C(=S)/N=c1\ssc(=Nc2ccccc2)n1-c1ccccc1	–	94.4	> 100	68.7 µM	> 100	> 100	–	70.7 µM	–	–	–	> 100	–	–	–	36.5 µM	–	–	–	–
CCCCC[C@H]1C/C=C2/C(=O)C=C[C@@H]2C/C=C\CCCC(=O)O1	0.256	1.97	5.02	5.12 µM	0.298	0.705	–	0.305 µM	0.113	172	120	0.343	0.123	0.155	227	1.98 µM	116	0.5	0.149	–
